Test results published in ChEMBL document CHEMBL1201862, “PubChem BioAssay data set” (2004).
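Cells were grown in 96-well plates and exposed to each compound for 48 hours at five concentrations; endpoints were interpolated linearly between bracketing concentrations, or set to the highest concentration if not reached. Abbreviation: GI50, concentration required for 50% inhibition of growth.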 Active and inactive are the calls of the source. No stated cut-off is given here; in the data, active = GI50 up to about 1.1 µM and inactive = higher.

Columns and labels:
Experiment in all cases: inhibition of tumour cell growth, NCI panel, 48 h
ACHN = tested on: ACHN
CAKI-1 = tested on: CAKI-1
DLD-1 = tested on: DLD-1
HT-29 = tested on: HT-29
IGROV-1 = tested on: IGROV-1
KM12 = tested on: KM12
MOLT-4 = tested on: MOLT-4
Malme-3M = tested on: Malme-3M
NCI-H23 = tested on: NCI-H23
OVCAR-3 = tested on: OVCAR-3
SF-268 = tested on: SF-268
SK-MEL-28 = tested on: SK-MEL-28
SK-OV-3 = tested on: SK-OV-3
SN12C = tested on: SN12C
UACC-62 = tested on: UACC-62
K562 = tested on: K562

Measured: GI50

CCOc1ccccc1NC(=O)C(=O)Cc1nc2ccccc2s1
inactive: ACHN > 100 µM | CAKI-1 > 100 µM | DLD-1 > 100 µM | HT-29 > 100 µM | IGROV-1 > 100 µM | KM12 > 100 µM | MOLT-4 > 100 µM | Malme-3M > 100 µM | NCI-H23 > 100 µM | OVCAR-3 > 100 µM | SF-268 > 100 µM | SK-MEL-28 > 100 µM | SK-OV-3 > 100 µM | SN12C > 100 µM | UACC-62 > 100 µM

C=CCc1cc(-c2cc(CC=C)c(O)c(CNCCCl)c2)cc(CNCCCl)c1O
inactive: ACHN 16.5 µM | DLD-1 21.5 µM | HT-29 17.4 µM | IGROV-1 23.6 µM | K562 17.8 µM | KM12 17.3 µM | MOLT-4 16.9 µM | Malme-3M 22.2 µM | NCI-H23 16 µM | OVCAR-3 21.4 µM | SF-268 22.6 µM | SK-MEL-28 18.6 µM | SN12C 19.8 µM | UACC-62 14.6 µM

CC(=O)/C=C1\CC(=O)Nc2ccccc2N1
inactive: ACHN > 100 µM | CAKI-1 > 100 µM | DLD-1 > 100 µM | HT-29 > 100 µM | IGROV-1 > 100 µM | K562 > 100 µM | KM12 > 100 µM | Malme-3M > 100 µM | NCI-H23 > 100 µM | SF-268 > 100 µM | SK-MEL-28 > 100 µM | SK-OV-3 > 100 µM | SN12C > 100 µM | UACC-62 > 100 µM

COC(=O)/C(=C/c1ccc(OC)cc1)C(C(=O)O)=C1CCCC1
inactive: ACHN > 100 µM | CAKI-1 > 100 µM | DLD-1 > 100 µM | HT-29 > 100 µM | IGROV-1 > 100 µM | K562 > 100 µM | KM12 > 100 µM | MOLT-4 > 100 µM | NCI-H23 > 100 µM | SK-OV-3 > 100 µM | SN12C > 100 µM | UACC-62 > 100 µM

CCOC(=O)c1oc2ccc(OC)c3c2c1CCC3
inactive: ACHN > 100 µM | DLD-1 64.9 µM | HT-29 > 10 µM | IGROV-1 > 100 µM | K562 55 µM | KM12 > 100 µM | MOLT-4 26.1 µM | Malme-3M > 100 µM | NCI-H23 59.6 µM | OVCAR-3 > 100 µM | SF-268 > 100 µM | SK-MEL-28 > 100 µM | SK-OV-3 > 100 µM | SN12C > 100 µM | UACC-62 > 100 µM

CN1C(=O)C(=CN)C(=O)N(C)C1=O
inactive: ACHN > 100 µM | CAKI-1 > 100 µM | DLD-1 > 100 µM | HT-29 > 100 µM | K562 > 100 µM | KM12 > 100 µM | MOLT-4 > 100 µM | Malme-3M > 100 µM | NCI-H23 > 100 µM | OVCAR-3 > 100 µM | SF-268 > 100 µM | SK-MEL-28 > 100 µM | SN12C > 100 µM

O=C(CC1(O)C(=O)Nc2ccc(Br)cc21)c1ccc(Cl)cc1 (configuration not stated)
inactive: ACHN > 100 µM | DLD-1 70.8 µM | HT-29 42 µM | IGROV-1 > 100 µM | K562 58.7 µM | KM12 47.4 µM | MOLT-4 43.3 µM | Malme-3M > 100 µM | NCI-H23 67.6 µM | OVCAR-3 > 100 µM | SF-268 > 100 µM | SK-MEL-28 > 100 µM | SK-OV-3 > 100 µM | SN12C 77.8 µM | UACC-62 36.2 µM

CCCc1cc(OC(=O)c2c(O)cc(OC)cc2CCC)cc(O)c1C(=O)O
inactive: ACHN 27.9 µM | DLD-1 36.5 µM | HT-29 33 µM | IGROV-1 47.9 µM | K562 32.5 µM | KM12 28.2 µM | MOLT-4 29.5 µM | Malme-3M 17.5 µM | NCI-H23 18 µM | OVCAR-3 20.6 µM | SK-MEL-28 28.2 µM | SK-OV-3 22.4 µM | UACC-62 35.7 µM

Cc1nc2c3c(ccc2nc1O)C(=O)c1ccccc1C3=O
inactive: ACHN 24.4 µM | CAKI-1 25.3 µM | DLD-1 31.8 µM | HT-29 > 100 µM | IGROV-1 42.9 µM | K562 > 100 µM | KM12 32.2 µM | Malme-3M > 100 µM | NCI-H23 66.7 µM | OVCAR-3 > 100 µM | SF-268 15.6 µM | SK-MEL-28 > 100 µM | SK-OV-3 24.5 µM | SN12C 42.2 µM | UACC-62 55.3 µM

Cc1ccc2c(c1)CNc1ccc(C)cc1CN2
inactive: ACHN > 100 µM | CAKI-1 > 100 µM | DLD-1 > 100 µM | HT-29 > 100 µM | IGROV-1 > 100 µM | K562 > 100 µM | KM12 > 100 µM | MOLT-4 > 100 µM | NCI-H23 > 100 µM | OVCAR-3 > 100 µM | SF-268 > 100 µM | SK-OV-3 > 100 µM | SN12C > 100 µM | UACC-62 > 100 µM

O=[PH](O)c1cc2c3ccccc3ccc2c2ccccc12
inactive: DLD-1 > 100 µM | HT-29 > 100 µM | IGROV-1 > 100 µM | K562 > 100 µM | KM12 > 100 µM | MOLT-4 > 100 µM | NCI-H23 > 100 µM | OVCAR-3 > 100 µM | SF-268 > 100 µM | SK-MEL-28 > 100 µM | SK-OV-3 > 100 µM | SN12C > 100 µM | UACC-62 > 100 µM

C/N=C(\N=c1/ss/c(=N\C)n1C)N(C)C.[O-][Cl+3]([O-])([O-])O
inactive: ACHN > 100 µM | CAKI-1 78.2 µM | DLD-1 94.6 µM | HT-29 > 100 µM | IGROV-1 > 100 µM | K562 40.7 µM | KM12 > 100 µM | MOLT-4 59.7 µM | NCI-H23 54.6 µM | OVCAR-3 53.1 µM | SF-268 > 100 µM | SK-MEL-28 > 100 µM | SK-OV-3 > 100 µM | SN12C > 100 µM | UACC-62 > 100 µM

COc1cc2c(cc1OC)C1C=NC(C(=O)O)(C2)c2ccccc21 (configuration not stated)
inactive: CAKI-1 > 100 µM | DLD-1 > 100 µM | HT-29 > 100 µM | IGROV-1 > 100 µM | K562 23 µM | KM12 > 100 µM | MOLT-4 > 100 µM | Malme-3M > 100 µM | NCI-H23 > 100 µM | OVCAR-3 > 100 µM | SF-268 > 100 µM | SK-OV-3 > 100 µM | SN12C > 100 µM | UACC-62 > 100 µM

NC(CCc1nc(-c2ccccc2)cs1)C(=O)O (configuration not stated)
inactive: ACHN > 100 µM | CAKI-1 > 100 µM | DLD-1 > 100 µM | HT-29 > 100 µM | IGROV-1 > 100 µM | K562 > 100 µM | KM12 > 100 µM | MOLT-4 > 100 µM | Malme-3M > 100 µM | NCI-H23 > 100 µM | OVCAR-3 > 100 µM | SK-MEL-28 > 100 µM | SK-OV-3 > 100 µM | SN12C > 100 µM | UACC-62 > 100 µM
